Results as given in US7300946B2, “N-(substituted arylmethyl)-4-(disubstituted methyl) piperidines and pyridines” (Bayer CropScience AG, priority 2002, dated 2007).

Tested on: tobacco budworm (Heliothis virescens [Fabricius])
Assay: surface-treated diet test against the tobacco budworm
Format: in vivo
Conditions: tobacco budworm second instar larvae, surface-treated diet, 0.25 millimoles of candidate insecticide on the surface of the diet, five-day exposure; for Percent Mortality: compared to total number of insects infested; for Percent Growth Inhibition: inhibition of insect weight relative to untreated controls
Method: Candidate insecticides were evaluated for activity against the tobacco budworm (Heliothis virescens [Fabricius]) in a surface-treated diet test.
In this test one mL of molten (65–70° C.) wheat germ-based artificial diet was pipetted into each well of a four by six (24 well) multi-well plate (ID# 430345-15.5 mm dia.×17.6 mm deep; Corning Costar Corp., One Alewife Center, Cambridge, Mass. 02140). The diet was allowed to cool to ambient temperature before treatment with candidate insecticide.
For a determination of insecticidal activity, solutions of the candidate insecticides were prepared for testing using a Packard 204DT Multiprobe® Robotic System (Packard Instrument Company, 800 Research Parkway, Meriden, Conn. 06450), in which the robot first diluted a standard 50 millimolar DMSO solution of candidate insecticide with a 1:1 water/acetone solution (V/V) in a ratio of 1:7 stock solution to water/acetone. The robot subsequently pipetted 40 microliters of the so-prepared solution onto the surface of the diet in each of three wells in the 24 multi-well plate. The process was repeated with solutions of seven other candidate insecticides. Once treated, the contents of the multi-well plate were allowed to dry, leaving 0.25 millimoles of candidate insecticide on the surface of the diet, or a concentration of 0.25 millimolar. Appropriate untreated controls containing only DMSO on the diet surface were also included in this test. […]
In each well of the test plate was placed one second instar tobacco budworm larvea, each weighing approximately five milligrams. After the larvae were placed in each well, the plate was sealed with clear polyfilm adhesive tape. The tape over each well was perforated to ensure an adequate air supply. The plates were then held in a growth chamber at 25° C. and 60% relative humidity for five days (light 14 hours/day).
After the five-day exposure period insecticidal activity for each rate of application of candidate insecticide was assessed as percent inhibition of insect weight relative to the weight of insects from untreated controls, and percent mortality when compared to the total number of insects infested.
The test compounds of formula I are identified by numbers that correspond to those in Table 1.
These tests were conducted with 0.25 millimoles of candidate insecticide on the surface of the diet.

SMILES	Percent Mortality	Percent Growth Inhibition
O=C(Nc1cc(Cl)cc(Cl)c1)OC(c1ccc(C(F)(F)F)cc1)C1CCN(Cc2ccc(Oc3ccccn3)cc2)CC1 (centres unmarked) [Compound 232]	100%	100%
O=C(Nc1c(Cl)cccc1Cl)OC(c1ccc(C(F)(F)F)cc1)C1CCN(Cc2ccc(Oc3ccccn3)cc2)CC1 (centres unmarked) [Compound 233]	33%	100%
O=C(Nc1cc(Cl)c(Cl)cc1Cl)OC(c1ccc(C(F)(F)F)cc1)C1CCN(Cc2ccc(Oc3ccccn3)cc2)CC1 (centres unmarked) [Compound 234]	100%	100%
O=C(Nc1cccc(F)c1)OC(c1ccc(OC(F)(F)F)cc1)C1CCN(Cc2ccc(Oc3ccccn3)cc2)CC1 (centres unmarked) [Compound 235]	100%	100%
O=C(Nc1ccc(F)cc1)OC(c1ccc(OC(F)(F)F)cc1)C1CCN(Cc2ccc(Oc3ccccn3)cc2)CC1 (centres unmarked) [Compound 236]	100%	100%
O=C(Nc1ccc(F)c(F)c1)OC(c1ccc(C(F)(F)F)cc1)C1CCN(Cc2ccc(Oc3ccccn3)cc2)CC1 (centres unmarked) [Compound 237]	100%	100%
O=C(Nc1ccc(F)c(F)c1)OC(c1ccc(OC(F)(F)F)cc1)C1CCN(Cc2ccc(Oc3ccccn3)cc2)CC1 (centres unmarked) [Compound 238]	100%	100%
O=C(Nc1cc(F)ccc1F)OC(c1ccc(C(F)(F)F)cc1)C1CCN(Cc2ccc(Oc3ccccn3)cc2)CC1 (centres unmarked) [Compound 239]	100%	100%
O=C(Nc1cc(F)cc(F)c1)OC(c1ccc(C(F)(F)F)cc1)C1CCN(Cc2ccc(Oc3ccccn3)cc2)CC1 (centres unmarked) [Compound 240]	100%	100%
O=C(Nc1c(F)cccc1F)OC(c1ccc(C(F)(F)F)cc1)C1CCN(Cc2ccc(Oc3ccccn3)cc2)CC1 (centres unmarked) [Compound 241]	100%	100%
O=C(Nc1ccc(F)c(F)c1F)OC(c1ccc(C(F)(F)F)cc1)C1CCN(Cc2ccc(Oc3ccccn3)cc2)CC1 (centres unmarked) [Compound 242]	100%	100%
O=C(Nc1c(F)c(F)c(F)c(F)c1F)OC(c1ccc(C(F)(F)F)cc1)C1CCN(Cc2ccc(Oc3ccccn3)cc2)CC1 (centres unmarked) [Compound 243]	100%	100%
O=C(Nc1cccc(C(F)(F)F)c1)OC(c1ccc(C(F)(F)F)cc1)C1CCN(Cc2ccc(Oc3ccccn3)cc2)CC1 (centres unmarked) [Compound 244]	100%	100%
O=C(Nc1ccc(C(F)(F)F)cc1)OC(c1ccc(C(F)(F)F)cc1)C1CCN(Cc2ccc(Oc3ccccn3)cc2)CC1 (centres unmarked) [Compound 245]	100%	100%
O=C(Nc1ccc(C(F)(F)F)cc1)OC(c1ccc(OC(F)(F)F)cc1)C1CCN(Cc2ccc(Oc3ccccn3)cc2)CC1 (centres unmarked) [Compound 246]	100%	100%
O=C(Nc1ccc(Cl)c(C(F)(F)F)c1)OC(c1ccc(C(F)(F)F)cc1)C1CCN(Cc2ccc(Oc3ccccn3)cc2)CC1 (centres unmarked) [Compound 247]	100%	100%
O=C(Nc1cc(C(F)(F)F)cc(C(F)(F)F)c1)OC(c1ccc(C(F)(F)F)cc1)C1CCN(Cc2ccc(Oc3ccccn3)cc2)CC1 (centres unmarked) [Compound 248]	100%	100%
O=C(Nc1ccc(OC(F)(F)F)cc1)OC(c1ccc(C(F)(F)F)cc1)C1CCN(Cc2ccc(Oc3ccccn3)cc2)CC1 (centres unmarked) [Compound 249]	100%	100%
O=C(Nc1ccc(-c2ccccc2)cc1)OC(c1ccc(C(F)(F)F)cc1)C1CCN(Cc2ccc(Oc3ccccn3)cc2)CC1 (centres unmarked) [Compound 250]	100%	100%
CCn1nnc(-c2ccc(CN3CCC(C(OC(=O)Nc4ccccc4)c4ccc(OC(F)(F)F)cc4)CC3)cc2)n1 (centres unmarked) [Compound 261]	100%	100%
Cn1nnc(-c2ccc(CN3CCC(C(OC(=O)Nc4ccccc4Cl)c4ccc(OC(F)(F)F)cc4)CC3)cc2)n1 (centres unmarked) [Compound 262]	100%	100%
Cn1nnc(-c2ccc(CN3CCC(C(OC(=O)Nc4cccc(Cl)c4)c4ccc(OC(F)(F)F)cc4)CC3)cc2)n1 (centres unmarked) [Compound 263]	100%	100%

SMILES	Percent Mortality	Percent Growth Inhibition
Cn1nnc(-c2ccc(CN3CCC(C(OC(=O)Nc4ccc(Cl)cc4)c4ccc(Cl)cc4)CC3)cc2)n1 (centres unmarked) [Compound 264]	100%	100%
CCn1nnc(-c2ccc(CN3CCC(C(OC(=O)Nc4ccc(Cl)cc4)c4ccc(C(F)(F)F)cc4)CC3)cc2)n1 (centres unmarked) [Compound 265]	100%	100%
Cn1nnc(-c2ccc(CN3CCC(C(OC(=O)Nc4ccc(Cl)cc4)c4ccc(OC(F)(F)F)cc4)CC3)cc2)n1 (centres unmarked) [Compound 266]	100%	100%
CCn1nnc(-c2ccc(CN3CCC(C(OC(=O)Nc4ccc(Cl)cc4)c4ccc(OC(F)(F)F)cc4)CC3)cc2)n1 (centres unmarked) [Compound 267]	100%	100%
CCn1nnc(-c2ccc(CN3CCC(C(OC(=O)Nc4cccc(Br)c4)c4ccc(C(F)(F)F)cc4)CC3)cc2)n1 (centres unmarked) [Compound 268]	100%	100%
CCn1nnc(-c2ccc(CN3CCC(C(OC(=O)Nc4ccc(Br)cc4)c4ccc(C(F)(F)F)cc4)CC3)cc2)n1 (centres unmarked) [Compound 269]	100%	100%
CCn1nnc(-c2ccc(CN3CCC(C(OC(=O)Nc4ccc(Br)cc4)c4ccc(OC(F)(F)F)cc4)CC3)cc2)n1 (centres unmarked) [Compound 270]	100%	100%
CCn1nnc(-c2ccc(CN3CCC(C(OC(=O)Nc4ccc(I)cc4)c4ccc(OC(F)(F)F)cc4)CC3)cc2)n1 (centres unmarked) [Compound 271]	100%	100%
Cn1nnc(-c2ccc(CN3CCC(C(OC(=O)Nc4ccccc4F)c4ccc(OC(F)(F)F)cc4)CC3)cc2)n1 (centres unmarked) [Compound 272]	99%	100%
Cn1nnc(-c2ccc(CN3CCC(C(OC(=O)Nc4cccc(F)c4)c4ccc(OC(F)(F)F)cc4)CC3)cc2)n1 (centres unmarked) [Compound 273]	100%	100%
Cn1nnc(-c2ccc(CN3CCC(C(OC(=O)Nc4ccc(F)cc4)c4ccc(Cl)cc4)CC3)cc2)n1 (centres unmarked) [Compound 274]	100%	100%
Cn1nnc(-c2ccc(CN3CCC(C(OC(=O)Nc4ccc(F)cc4)c4ccc(OC(F)(F)F)cc4)CC3)cc2)n1 (centres unmarked) [Compound 275]	100%	100%
CCn1nnc(-c2ccc(CN3CCC(C(OC(=O)Nc4ccc(F)cc4)c4ccc(OC(F)(F)F)cc4)CC3)cc2)n1 (centres unmarked) [Compound 277]	100%	100%
CCn1nnc(-c2ccc(CN3CCC(C(OC(=O)Nc4ccc(Cl)cc4Cl)c4ccc(C(F)(F)F)cc4)CC3)cc2)n1 (centres unmarked) [Compound 280]	100%	100%
CCn1nnc(-c2ccc(CN3CCC(C(OC(=O)Nc4cc(Cl)ccc4Cl)c4ccc(C(F)(F)F)cc4)CC3)cc2)n1 (centres unmarked) [Compound 281]	100%	100%
CCn1nnc(-c2ccc(CN3CCC(C(OC(=O)Nc4c(Cl)cccc4Cl)c4ccc(C(F)(F)F)cc4)CC3)cc2)n1 (centres unmarked) [Compound 282]	0%	95%
CCn1nnc(-c2ccc(CN3CCC(C(OC(=O)Nc4ccc(Cl)c(Cl)c4)c4ccc(C(F)(F)F)cc4)CC3)cc2)n1 (centres unmarked) [Compound 283]	100%	100%
CCn1nnc(-c2ccc(CN3CCC(C(OC(=O)Nc4cc(Cl)cc(Cl)c4)c4ccc(C(F)(F)F)cc4)CC3)cc2)n1 (centres unmarked) [Compound 284]	100%	100%
CCn1nnc(-c2ccc(CN3CCC(C(OC(=O)Nc4ccc(C)cc4)c4ccc(OC(F)(F)F)cc4)CC3)cc2)n1 (centres unmarked) [Compound 285]	100%	100%
CCn1nnc(-c2ccc(CN3CCC(C(OC(=O)Nc4ccc(C(C)C)cc4)c4ccc(OC(F)(F)F)cc4)CC3)cc2)n1 (centres unmarked) [Compound 286]	50%	94%
CCn1nnc(-c2ccc(CN3CCC(C(OC(=O)Nc4cccc(C(F)(F)F)c4)c4ccc(C(F)(F)F)cc4)CC3)cc2)n1 (centres unmarked) [Compound 288]	100%	100%
